The text below walks through data of US4937232A, “Inhibition of protein kinase C by long-chain bases” (priority 1988, dated 1990).

Data set [1] can be described thus: HL-60 cell growth and viability. In kind it is cell-based, human. The following applies: human, hl-60 cells, 24 h; for viability at 24 h, 2.5 µM: 2.5 μM sphinganine; for viability at 24 h, 5 µM: 5 μM sphinganine. The procedure: (§1) The HL-60 cells (obtained from the American Type Culture Collection, ATCC CCL240) were grown at 37° as a suspension culture in 175 cm^2 Nunc tissue culture flasks (Vangard International, Neptune, N.J.). The cells were subcultured at a density of 0.25×10^6 cells/ml and used between passage numbers 30 and 40.
(§2) Cells were centrifuged at 600 g for 3 min, and added at 1×10^5 cells per well in 12-well culture dishes. Medium, PMA, and long-chain bases (prepared as the 1:1 molar complex with fatty acid-free bovine serum albumin) at the indicated concentrations were added for a total volume of 2.0 ml. After the desired times, the cells in suspension were counted and checked for viability (trypan blue exclusion) with a hemacytometer. The attached cells were quantitated by measuring DNA content according to the method of West et al (Anal. Biochem., 147, 289-295, 1985) and by assaying for acid phosphatase according to the method of Schnyder (J. Exp. Med., 148, 434-445, 1978).

For data set [2], the system named is HL-60 cells. Put plainly: HL-60 cell growth and viability. Format: cell-based, human. The procedure: as §1, §2
The nature of data set [3]: Neutrophil viability (Trypan Blue exclusion, LDH release). In kind it is cell-based. The following applies: human, neutrophils, 50 μM sphinganine, 1.2×10^7 cells/ml. The method, then:
Cell viability was assessed by two criteria: Trypan Blue exclusion and release of the cytosolic enzyme, lactate dehydrogenase (LDH). LDH activity was monitored by following the oxidation of NADH at 340 nm. […] Trypan Blue exclusion was determined microscopically.
Background: Release of lactate dehydrogenase indicates damage to the cell membrane.

For data set [4], the system named is human neutrophils. The data set can be described thus: Phagocytosis of opsonized latex particles by neutrophils. Format: cell-based. The following applies: 40 μM sphinganine, ± S.E.M. The procedure: Latex particles were opsonized by incubating at 37° C. 1 ml of particles with 0.2 ml of human serum plus 1 ml Tris buffer, pH 8.5. […] The reaction was terminated by the addition of 0.4 ml of ice-cold buffer containing 1 mM EDTA. […] Cells are sedimented, while excess beads remain at the ficoll-saline interface. The number of latex beads internalized per cell was determined by microscopic examination.

Data set [5] concerns phorbol ester binding site (protein kinase C) of neutrophils. The data set can be described thus: Cellular [3H]-phorbol dibutyrate binding in neutrophils. Set-up: species or system human. The following applies: 50 μM; 15 min. The procedure:
Neutrophils (1×10^8 cells/ml) were preincubated with the indicated concentration of sphinganine, palmitic acid, or ceramide for five minutes prior to the addition of 50 nM (final concentration) of [^3 H]-phorbol dibutyrate (specific activity of 8.3 Ci/mMole). The cells were incubated an additional 15 min. in a shaking waterbath at 37° C. The incubation mixtures were filtered using an Amicon filtration manifold model VFM-III and washed 5 times with 5 mls of ice-cold PBS-glucose. The filters were counted using a Beckman LS7000 scintillation counter.

The test system of data set [6] is human neutrophils. The data set can be described thus: [32P]-phosphate incorporation into TCA-precipitable material of neutrophils. Format: cell-based. The procedure:
Neutrophils (1.4×10^8 cells) were preincubated in with 0.5 mCi Na2 H^32 PO4 in buffer containing […] NaCl, 5.56 mM glucose, 10 mM Hepes, and 0.33 mM CaCl2 for a total of 1 hr at 37° C. in a shaking waterbath. Excess unbound counts were removed by centrifugation and resuspension, repeated five times. The cells were then divided into 4 treatment groups (see RESULTS below) containing approximately 3.5×10^7 cells each. All groups were incubated at 37° C. in a shaking waterbath for the same total time. Some samples were incubated 10 min. with sphinganine (40 μM) prior to addition of 1 μM PMA (final concentration), with which they were incubated for an additional 15 min. The reaction was stopped by addition of an equal volume of boiling SDS dissociation buffer (9% SDS, 1% mercaptoethanol, 15% glycerol, 30 mM Tris, pH 7.8). The samples were run on a 12% SDS-polyacrylamide gel using the method of Rudolph and Krueger (Adv. Cyclic Nucleotide Res. 101, 107-133, 1979). The gels were dried using a Bio-Rad model 2400 Gel Slab Dryer. Autoradiography was performed on the dried gels using Kodak X-omat X-ray film and Dupont Cronex intensifying screens. The gels were exposed for 12 hrs at -70° C.
Alternatively, neutrophils were preincubated as described above using 0.1 mCi of ^32 P labeled phosphate. The cells were broken by 5 min. of sonication using an Ultramet III waterbath sonicator, and 5% (final concentration) trichloroacetic acid was added to each sample. […] The precipitate was filtered and washed extensively using an Amicon filtration system and counted using a Beckman LS7000 scintillation counter.

In data set [7] the test system is human neutrophils. Put plainly: Cytoplasmic calcium concentration (Quin2). The following applies: Sphinganine (30 μM) pretreatment. In kind it is cell-based. The method, then: Intracellular calcium was measured by the Quin2 method. Briefly, Quin2/acetoxymethylester (50 μM) was preincubated with 1×10^8cell/ml for 20 min. at 37°, prior to 10-fold dilution and continuation of incubation for an additional 40-60 minutes. Cells were reisolated by centrifugation to remove extracellular fluorophore, and fluorescence measurement and calibration were carried out as described by Tsien et al in J. Cell. Biol. 94, 325-334, 1982, using a Perkin-Elmer MPF-44B fluorescence spectrophotometer. Buffer consisted of 140 mM NaCl, 5 mM KCl, 1 mM Na2 PO4, 5.5 mM glucose, 0.5 mM MgSO4, 20 mM Hepes, and 1 mM CaCl2.

For data set [8], the system named is Ca++/calmodulin-dependent protein kinase. The data set can be described thus: Phosphorylation of the 20K protein in platelets. Format: cell-based. The following applies: concentrations which completely abolished phosphorylation of the 40K protein.
Data set [9] has as its system protein kinase C. The data set can be described thus: [3H]PDBu binding to protein kinase C in mixed micelles. More on the design: species or system rat. The following applies: 16 and 20 mol % PS. The procedure:
[^3 H]PDBu binding was performed as previously described (26).

Setting [10] is: 8 nM PMA, read-out: Percent viability of suspended cells.
[11] abbreviates: No PMA, read-out: Percent viability of suspended cells.

Like-named read-outs stand apart in the source and are kept apart here. A value given as a limit tells only on which side of the number the result lay.

With `CCCCCCCCCCCCCCC[C@@H](O)[C@@H](N)CO` (relative stereo) [Sphinganine, erythro-dihydrosphingosine], the viability at 24 h, 1 µM amounted to 93% in data set [1] (8 nM PMA + 1 μM sphinganine, read-out: % Viability); 87% in [1] (8 nM PMA, 1 μM sphinganine, read-out: Percent viability of suspended cells); 95% in data set [1] (1 μM sphinganine, no PMA, read-out: % Viability); 90% in data set [1] (No PMA, 1 μM sphinganine, read-out: Percent viability of suspended cells). Besides, the viability at 24 h, 2.5 µM in data set [1] (setting [10]) turned out to be 94%; in [1] (setting [11]), 98%. Also, the viability at 24 h, 5 µM stood at 80% in data set [1] (setting [10]) and 87% in data set [1] (setting [11]). Also, the “HL-60 cell growth (doubling)” value in [2] (1 μM sphinganine, first 24 h) is listed as “not changed”. Also, in data set [2] (5 μM sphinganine, second day), the HL-60 cytotoxicity result was “significant cell death”. The HL-60 cell growth result in [2] (1 and 2.5 μM sphinganine, second day) is recorded as “inhibited growth without cytotoxicity”; in data set [2] (2.5 and 5 μM sphinganine, first 24 h), “limited growth”. Besides, the viability at 50 µM is over 96% in [3] (read-out: cellular LDH retained) and over 95% in data set [3] (read-out: viability by Trypan Blue exclusion). In addition, in [4], the “ingested latex beads per cell” value came out at 7.2±0.8 beads/cell. Further, the “displacement of [3H]-phorbol dibutyrate” value in [5] was 60%. The “[32P]-phosphate incorporation into TCA-precipitable material” value in [6] (PMA (1 μM) plus Sa (25 μM)) turned out to be 2845 COUNTS PER MINUTE; in data set [6] (Sa (25 μM)) it was 2506 COUNTS PER MINUTE. The “Calcium, Resting” value in data set [7] is 0.20 ± 0.02 µM. In addition, the “Calcium, FMLP-Peak” value in [7] (1 μM FMLP) was 0.66 ± 0.14 µM. For the same compound, the “inhibition of phosphorylation of the 20K protein in platelets” value in [8] was “lack of inhibition”.
On to `CCCCCCCCCCCCC/C=C/[C@@H](O)[C@@H](N)CO` [sphingosine], for which the “inhibition of phorbol-ester binding to mixed micelles” value in [9] was “inhibited”.
